Results reported in ChEMBL document CHEMBL1649249, “Antifungal activity of micafungin in serum” (Antimicrob Agents Chemother, 2009).
*1 amine or outer side, *2 acyl side, *3 side chain or, on linkers, in order; H or OH if unused. Where a SMILES comes first, the peptide text is derived from it. Bridges are numbered along the chain shown (N, C = ends). [ ]: non-standard residue; d: D form. The star is where a group is joined. hTyr(3S-OH,4S-OH,3'-OSO3H) = N[C@H](C(=O)O)[C@H](O)[C@@H](O)c1ccc(O)c(OS(=O)(=O)O)c1; Orn(4R-OH,5R-OH) = O=C([C@H](C[C@@H](O)[C@@H](O)N[*:3])N[*:1])[*:2]; Pro(3S-OH,4S-Me) = C[C@H]1CN[C@H](C(=O)O)[C@H]1O; X1 = CCCCCOc1ccc(-c2cc(-c3ccc(C(=O)*)cc3)no2)cc1; Gln(3R-OH) = NC(=O)C[C@@H](O)[C@H](N)C(=O)O; Hyp = O=C(O)[C@@H]1C[C@@H](O)CN1

What was measured:
[1] = Cmax in patient with acute lymphoblastic leukemia infected with Candida albicans FP633 at 1.2 mg/kg administered once daily after 15 days by HPLC; type: ADME, organism-based; parameters: dose 1.2 mg/kg; conditions: human, in vivo
[2] = Cmax in patient with acute myeloid leukemia infected with Candida albicans FP633 at 1.1 mg/kg administered once daily after 8 days by HPLC; type: ADME, organism-based; parameters: dose 1.1 mg/kg; conditions: human, in vivo
[3] = Ratio of MIC for Candida albicans FP633 collected from trough serum sample on day 15 from patient with acute myeloid leukemia at 1.1 mg/kg in presence of human serum to Cmax for patient with acute myeloid leukemia at 1.1 mg/kg; type: functional
Candida albicans [4] = assay: Antifungal activity against Candida albicans FP633 collected from peak serum sample on day 8 from patient with acute myeloid leukemia at 1.1 mg/kg by disk diffusion method; type: functional
Candida albicans [5] = assay: Antifungal activity against Candida albicans FP633 collected from peak serum sample on day 8 from patient with acute myeloid leukemia at 1.1 mg/kg by disk diffusion method in presence of human serum; type: functional
Candida albicans [6] = assay: Antifungal activity against Candida albicans FP633 collected from trough serum sample on day 8 from patient with acute myeloid leukemia at 1.1 mg/kg by disk diffusion method; type: functional
Candida albicans [7] = assay: Antifungal activity against Candida albicans FP633 collected from peak serum sample on day 15 from patient with acute lymphoblastic leukemia at 1.2 mg/kg by disk diffusion method in presence of human serum; type: functional
[8] = Ratio of MIC for Candida albicans FP633 collected from trough serum sample on day 8 from patient with acute myeloid leukemia at 1.1 mg/kg in presence of human serum to Cmax for patient with acute myeloid leukemia at 1.1 mg/kg; type: functional
[9] = Ratio of MIC for Candida albicans FP633 collected from peak serum sample on day 15 from patient with acute myeloid leukemia at 1.1 mg/kg in presence of human serum to Cmax for patient with acute myeloid leukemia at 1.1 mg/kg; type: functional
Candida albicans [10] = assay: Antifungal activity against Candida albicans FP633 collected from trough serum sample on day 15 from patient with acute myeloid leukemia at 1.1 mg/kg by disk diffusion method; type: functional
[11] = Ratio of MIC for Candida albicans FP633 collected from peak serum sample on day 43 from patient with malignant lymphoma at 4.8 mg/kg to Cmax for patient with malignant lymphoma at 4.8 mg/kg; type: functional
[12] = Ratio of MIC for Candida albicans FP633 collected from peak serum sample on day 15 from patient with acute lymphoblastic leukemia at 1.2 mg/kg to Cmax for patient with acute lymphoblastic leukemia at 1.2 mg/kg; type: functional
[13] = Ratio of MIC for Candida albicans FP633 collected from peak serum sample on day 43 from patient with malignant lymphoma at 4.8 mg/kg in presence of human serum to Cmax for patient with malignant lymphoma at 4.8 mg/kg; type: functional
Candida albicans [14] = assay: Antifungal activity against Candida albicans FP633 collected from trough serum sample on day 15 from patient with acute lymphoblastic leukemia at 1.2 mg/kg by disk diffusion method; type: functional
Candida albicans [15] = assay: Antifungal activity against Candida albicans FP633 collected from peak serum sample on day 43 from patient with myelodysplastic syndrome at 1.4 mg/kg by disk diffusion method; type: functional
[16] = Ratio of MIC for Candida albicans FP633 collected from peak serum sample on day 12 from patient with malignant lymphoma at 2.6 mg/kg in presence of human serum to Cmax for patient with malignant lymphoma at 2.6 mg/kg; type: functional
Candida albicans [17] = assay: Antifungal activity against Candida albicans FP633 collected from peak serum sample on day 17 from patient with acute lymphoblastic leukemia at 1.2 mg/kg by disk diffusion method in presence of human serum; type: functional
[18] = Cmax in patient with acute myeloid leukemia infected with Candida albicans FP633 at 1.1 mg/kg administered once daily after 15 days by HPLC; type: ADME, organism-based; parameters: dose 1.1 mg/kg; conditions: human, in vivo
[19] = Ratio of MIC for Candida albicans FP633 collected from trough serum sample on day 8 from patient with acute myeloid leukemia at 1.1 mg/kg to Cmax for patient with acute myeloid leukemia at 1.1 mg/kg; type: functional
[20] = Ratio of MIC for Candida albicans FP633 collected from peak serum sample on day 8 from patient with acute myeloid leukemia at 1.1 mg/kg in presence of human serum to Cmax for patient with acute myeloid leukemia at 1.1 mg/kg; type: functional
[21] = Ratio of MIC for Candida albicans FP633 collected from trough serum sample on day 15 from patient with acute lymphoblastic leukemia at 1.2 mg/kg to Cmax for patient with acute lymphoblastic leukemia at 1.2 mg/kg; type: functional
[22] = Ratio of MIC for Candida albicans FP633 collected from peak serum sample on day 43 from patient with myelodysplastic syndrome at 3.9 mg/kg in presence of human serum to Cmax for patient with myelodysplastic syndrome at 3.9 mg/kg; type: functional
[23] = Ratio of MIC for Candida albicans FP633 collected from trough serum sample on day 15 from patient with acute lymphoblastic leukemia at 1.2 mg/kg in presence of human serum to Cmax for patient with acute lymphoblastic leukemia at 1.2 mg/kg; type: functional
[24] = Ratio of MIC for Candida albicans FP633 collected from peak serum sample on day 15 from patient with acute myeloid leukemia at 1.1 mg/kg to Cmax for patient with acute myeloid leukemia at 1.1 mg/kg; type: functional
[25] = Ratio of MIC for Candida albicans FP633 collected from peak serum sample on day 12 from patient with malignant lymphoma at 2.6 mg/kg to Cmax for patient with malignant lymphoma at 2.6 mg/kg; type: functional
[26] = Cmax in patient with malignant lymphoma infected with Candida albicans FP633 at 4.8 mg/kg administered once daily after 43 days by HPLC; type: ADME, organism-based; parameters: dose 4.8 mg/kg; conditions: human, in vivo
Candida albicans [27] = assay: Antimicrobial activity against Candida albicans FP633 in presence of heat inactivated mouse serum; type: functional
[28] = Cmax in patient with myelodysplastic syndrome infected with Candida albicans FP633 at 1.4 mg/kg administered once daily after 45 days by HPLC; type: ADME, organism-based; parameters: dose 1.4 mg/kg; conditions: human, in vivo
Candida albicans [29] = assay: Antifungal activity against Candida albicans FP633 collected from trough serum sample on day 15 from patient with acute lymphoblastic leukemia at 1.2 mg/kg by disk diffusion method in presence of human serum; type: functional
Candida albicans [30] = assay: Antifungal activity against Candida albicans FP633 collected from peak serum sample on day 15 from patient with acute myeloid leukemia at 1.1 mg/kg by disk diffusion method; type: functional
Candida albicans [31] = assay: Antifungal activity against Candida albicans FP633 collected from peak serum sample on day 15 from patient with acute lymphoblastic leukemia at 1.2 mg/kg by disk diffusion method; type: functional
[32] = Cmax in patient with acute lymphoblastic leukemia infected with Candida albicans FP633 at 1.2 mg/kg administered once daily after 17 days by HPLC; type: ADME, organism-based; parameters: dose 1.2 mg/kg; conditions: human, in vivo
[33] = Cmax in patient with malignant lymphoma infected with Candida albicans FP633 at 2.6 mg/kg administered once daily after 12 days by HPLC; type: ADME, organism-based; parameters: dose 2.6 mg/kg; conditions: human, in vivo
[34] = Ratio of MIC for Candida albicans FP633 collected from peak serum sample on day 15 from patient with acute lymphoblastic leukemia at 1.2 mg/kg in presence of human serum to Cmax for patient with acute lymphoblastic leukemia at 1.2 mg/kg; type: functional
Candida albicans [35] = assay: Antifungal activity against Candida albicans FP633 collected from peak serum sample on day 43 patient with malignant lymphoma at 4.8 mg/kg by disk diffusion method in presence of human serum; type: functional
Candida albicans [36] = assay: Antifungal activity against Candida albicans FP633 collected from peak serum sample on day 43 patient with malignant lymphoma at 4.8 mg/kg by disk diffusion method; type: functional
Candida albicans [37] = assay: Antifungal activity against Candida albicans FP633 collected from peak serum sample on day 12 patient with malignant lymphoma at 2.6 mg/kg by disk diffusion method; type: functional
Candida albicans [38] = assay: Antifungal activity against Candida albicans FP633 collected from trough serum sample on day 8 from patient with acute myeloid leukemia at 1.1 mg/kg by disk diffusion method in presence of human serum; type: functional
Candida albicans [39] = assay: Antifungal activity against Candida albicans FP633 collected from peak serum sample on day 17 from patient with acute lymphoblastic leukemia at 1.2 mg/kg by disk diffusion method; type: functional
Candida albicans [40] = assay: Antifungal activity against Candida albicans FP633 collected from peak serum sample on day 43 from patient with myelodysplastic syndrome at 1.4 mg/kg by disk diffusion method in presence of human serum; type: functional
Candida albicans [41] = assay: Antifungal activity against Candida albicans FP633 collected from trough serum sample on day 15 from patient with acute myeloid leukemia at 1.1 mg/kg by disk diffusion method in presence of human serum; type: functional
[42] = Cmax in patient with malignant lymphoma infected with Candida albicans FP633 at 5.8 mg/kg administered once daily after 8 days by HPLC; type: ADME, organism-based; parameters: dose 5.8 mg/kg; conditions: human, in vivo
[43] = Ratio of MIC for Candida albicans FP633 collected from peak serum sample on day 17 from patient with acute lymphoblastic leukemia at 1.2 mg/kg in presence of human serum to Cmax for patient with acute lymphoblastic leukemia at 1.2 mg/kg; type: functional
[44] = Ratio of MIC for Candida albicans FP633 collected from peak serum sample on day 8 from patient with acute myeloid leukemia at 1.1 mg/kg to Cmax for patient with acute myeloid leukemia at 1.1 mg/kg; type: functional
Serum = assay: Protein binding in human serum; type: ADME, cell-free
Candida albicans [45] = assay: Antifungal activity against Candida albicans FP633 collected from peak serum sample on day 15 from patient with acute myeloid leukemia at 1.1 mg/kg by disk diffusion method in presence of human serum; type: functional
[46] = Ratio of MIC for Candida albicans FP633 collected from trough serum sample on day 15 from patient with acute myeloid leukemia at 1.1 mg/kg to Cmax for patient with acute myeloid leukemia at 1.1 mg/kg; type: functional
Candida albicans [47] = assay: Antifungal activity against Candida albicans FP633 collected from peak serum sample on day 12 patient with malignant lymphoma at 2.6 mg/kg by disk diffusion method in presence of human serum; type: functional
[48] = Cmax in patient with malignant lymphoma infected with Candida albicans FP633 at 3.9 mg/kg administered once daily after 10 days by HPLC; type: ADME, organism-based; parameters: dose 3.9 mg/kg; conditions: human, in vivo
[49] = Ratio of MIC for Candida albicans FP633 collected from peak serum sample on day 17 from patient with acute lymphoblastic leukemia at 1.2 mg/kg to Cmax for patient with acute lymphoblastic leukemia at 1.2 mg/kg; type: functional
[50] = Ratio of MIC for Candida albicans FP633 collected from peak serum sample on day 43 from patient with myelodysplastic syndrome at 3.9 mg/kg to Cmax for patient with myelodysplastic syndrome at 3.9 mg/kg; type: functional

CCCCCOc1ccc(-c2cc(-c3ccc(C(=O)N[C@H]4C[C@@H](O)[C@@H](O)NC(=O)[C@@H]5[C@@H](O)[C@@H](C)CN5C(=O)[C@H]([C@H](O)CC(N)=O)NC(=O)[C@H]([C@H](O)[C@@H](O)c5ccc(O)c(OS(=O)(=O)O)c5)NC(=O)[C@@H]5C[C@@H](O)CN5C(=O)[C@H]([C@@H](C)O)NC4=O)cc3)no2)cc1 [MICAFUNGIN] (X1-[Orn(4R-OH,5R-OH)]T[Hyp][hTyr(3S-OH,4S-OH,3'-OSO3H)][Gln(3R-OH)][Pro(3S-OH,4S-Me)]; lactam 1-C)
Cmax [1]: 6400 ng/mL | Cmax [2]: 8400 ng/mL | Ratio [3]: 58 | Activity (Candida albicans [4]): 3.8 µg/mL | Activity (Candida albicans [5]): 8.1 µg/mL | Activity (Candida albicans [6]): 1.1 µg/mL | Activity (Candida albicans [7]): 7 µg/mL | Ratio [8]: 78 | Ratio [9]: 92 | Activity (Candida albicans [10]): 1 µg/mL | Ratio [11]: 38 | Ratio [12]: 52 | Ratio [13]: 94 | Activity (Candida albicans [14]): 0.9 µg/mL | Activity (Candida albicans [15]): 2.5 µg/mL | Ratio [16]: 135 | Activity (Candida albicans [17]): 5.9 µg/mL | Cmax [18]: 5600 ng/mL | Ratio [19]: 42 | Ratio [20]: 96 | Ratio [21]: 40 | Ratio [22]: 63 | Ratio [23]: 71 | Ratio [24]: 45 | Ratio [25]: 37 | Cmax [26]: 37100 ng/mL | MIC (Candida albicans [27]): 1 µg/mL | Cmax [28]: 6700 ng/mL | Activity (Candida albicans [29]): 1.6 µg/mL | Activity (Candida albicans [30]): 2.5 µg/mL | Activity (Candida albicans [31]): 3.3 µg/mL | Cmax [32]: 6500 ng/mL | Cmax [33]: 16400 ng/mL | Ratio [34]: 109 | Activity (Candida albicans [35]): 34.8 µg/mL | Activity (Candida albicans [36]): 14.1 µg/mL | Activity (Candida albicans [37]): 6 µg/mL | Activity (Candida albicans [38]): 2.1 µg/mL | Activity (Candida albicans [39]): 2.9 µg/mL | Activity (Candida albicans [40]): 4.2 µg/mL | Activity (Candida albicans [41]): 1.7 µg/mL | Cmax [42]: 33600 ng/mL | Ratio [43]: 91 | Ratio [44]: 42 | PB (Serum): 99.8% | Activity (Candida albicans [45]): 5.2 µg/mL | Ratio [46]: 32 | Activity (Candida albicans [47]): 22.1 µg/mL | Cmax [48]: 34200 ng/mL | Ratio [49]: 44 | Ratio [50]: 38
